Assay results reported in US7795242B2, “Methods and compositions for immunomodulation” (The Brigham and Women's Hospital, Inc., priority 2003, dated 2010).

Legend:
[1] = test system: IL1AP T cells; assay: Proliferative response of IL1AP T cells stimulated with antigen and dendritic cells ([3H]-thymidine incorporation); assay type: cell-based, human; conditions: for stimulation (proliferation) of IL1AP T cells: DC as APC, FIG. 1A, 2B, 6E, 7A
Protocol: The antigens provided herein were identified with T-cell activation assays performed using purified fractions in order to determine their relative ability to activate T-cells. These assays were carried out essentially as described in U.S. Pat. Nos. 5,679,347; 5,853,737; and 6,238,676, and in Rosat et al. J. Immunol. 162:366-371, 1999. Other procedures are well-known in the art.
To generate CD1-restricted T cells that recognize novel antigens, we stimulated human peripheral blood lymphocytes using a method that reduces the outgrowth of MHC-restricted T cells and favors the detection of CD1-restricted T cells. This involves the repeated stimulation of lymphocytes with lipid antigens with monocyte-derived dendritic cells (DC) from donors that differ in their MHC protein expression, so that T cells responding to DC with a given MHC class I or II molecule will not be repeatedly stimulated and therefore […] in T cell lines produced after many rounds of stimulation. DCs were prepared from the peripheral blood of healthy donors by centrifugation over Ficoll-Hypaque, adherence of the mononuclear cells to plastic tissue culture flasks, culture of adherent cells with 300 U/ml GM-CSF and 200 U/ml IL-4 for 3 days, followed by irradiation (3300 R).
DC and T cells were cultured at a 1:5 ratio in the presence of 1 μg/ml LKKRRL mixture to yield T cell lines. T cells lines were used to generate clones by culturing T cells at approximately 1 cell per well with phytohemagglutinin, peripheral blood mononuclear cells, transformed B cell lines and 2 nM IL-2. This protocol yielded a polyclonal T cell line IL1AP and several clones derived there from, which are named IL1AP.15, IL1AP.31.
To assay the proliferative responses of IL1AP T cells, 5*10^4 Polyclonal IL1AP T cells were stimulated with 3*10^4 DC and LKKRRL mixture (FIG. 1A). […] C1R cells transfected with the vector pSRα-NEO, containing the cDNAs encoding human CD1a, CD1b, CD1c, CD1d, or no insert (C1R mock) were used as alternative APC for the stimulation of polyclonal T cells with LKKRRL mixture (FIG. 1C). […]

[2] = target: T1, CD1d (Homo sapiens, UniProt P15813); assay: Competition with αGalCer-mediated NK T cell activation on plate-bound recombinant CD1d; assay type: cell-based; conditions: FIG. 8; for block of αGalCer-mediated NK T activation: compound added in excess to plate-bound recombinant CD1d
Text: Next, to determine whether PPBF could compete with αGalCer-mediated NK T cell responses, we used an in vitro assay of PPBF added to recombinant CD1d proteins bound to a plate.

[3] = target: T1, CD1d; conditions: Im et al., J Biol Chem., 279:299-310, 2004; cited from earlier work
[4] = test system: J.RT3.ABd cells; assay: IL-2 release by J.RT3 cells transfected with IL1AP TCR α and β chains (J.RT3.ABd); assay type: cell-based; conditions: FIG. 11A
Protocol: We transfected the full-length TCR α and β chains from IL1AP cells into J.RT3 cells to generate a TCR-expressing reporter cell line (J.RT3.ABd). […] To determine whether PPBF could activate through intact CD3 complexes that were reconstituted by transfection of a TCR with irrelevant antigen specificity, J.RT3-T3.5 cells transfected with the TCR α and β chains of the CD8-2 cell line (J.RT3-CD8-2) that recognizes the mycobacterial lipopeptides DDM were tested for IL-2 release upon stimulation with DDM or PPBF.

[5] = test system: T cell line IL1AP; assay: IL-2 release by PPBF-reactive T cell line IL1AP with DC as APC (HT-2 bioassay); assay type: cell-based, human; conditions: IL-2 measured 24 h after stimulation; FIG. 7A
Protocol: Because αGalCer was previously known to function as a potent activator of CD1d-restricted T cell clones known as NK T cells, we sought to determine whether PPBF-reactive T cells and αGalCer-reactive T cells cross react. The PPBF-reactive T cell line IL1AP and the αGalCer-reactive T cell clone J3N.5 were each stimulated with αGalCer and PPBF using DC as APC. IL-2 release was measured 24 h after stimulation. The IL-2 concentration in 50 μl of culture supernatants, harvested 24 hours after T cell stimulation, was determined by adding 10^4 IL-2 starved HT-2 cells in […] medium, and a 6 h pulse after a 24 h incubation.

[6] = test system: polyclonal lymphocytes; assay: Proliferative response of polyclonal lymphocytes and T cell clones; assay type: cell-based, human; conditions: data not shown
Protocol: To determine whether PPBF non-selectively activated polyclonal lymphocyte populations or selectively activated antigen-specific clones present at low precursor frequency in vivo, polyclonal lymphocytes were tested for their proliferative response to PPBF.

## 3-methyl-PPBF
[1]; FIG. 6E
  capacity to stimulate IL1AP T cell proliferation relative to PPBF: stimulated T cells more potently than PPBF
[2]
  degree and titer of inhibition of αGalCer-mediated NK T activation compared with 2,6-ANS: comparable to that of 2,6-anilonapthalene sulfonic acid
  block of αGalCer-mediated NK T activation: substantially block αGalCer-mediated NK T activation in a dose-dependent manner

## O=S(=O)(O)c1ccc2cc(Nc3ccccc3)ccc2c1 [2,6-anilonapthalene sulfonic acid]
[3]
  binding to CD1d: has been shown to bind CD1d

## Cc1c(C)c(S(=O)(=O)Oc2ccccc2)c(C)c2c1OC(C)(C)C2 [PPBF, phenyl-2,2,4,6,7-pentamethyldihydrobenzofuran-5-sulfonyl]
[1]
  stimulation (proliferation) of IL1AP T cells: Only the T cell line IL1AP and clones derived therefrom were activated by PPBF
[1]; listed as Synthetic PPBF
  stimulation (proliferation) of IL1AP T cells: potently stimulate
[2]
  degree and titer of inhibition of αGalCer-mediated NK T activation compared with 2,6-ANS: comparable to that of 2,6-anilonapthalene sulfonic acid
  block of αGalCer-mediated NK T activation: substantially block αGalCer-mediated NK T activation in a dose-dependent manner
[4]
  IL-2 production by J.RT3.ABd cells upon stimulation: conferred the ability to produce IL-2 upon stimulation with PPBF

## CCCCCCCCCCCCCCCCCCCCCCCCCC(=O)N[C@@H](CO[C@H]1O[C@H](CO)[C@H](O)[C@H](O)[C@H]1O)[C@H](O)[C@H](O)CCCCCCCCCCCCCC [αGalCer, α-galactosyl ceramide]
[5]
  recognition by IL1AP T cells (IL-2 release): did not recognize αGalCer

## phytohemagglutinin [reference compound]
[6]
  activation of polyclonal T cells and T cell clones (proliferative response): activated by the mitogen phytohemagglutinin
